Active and inactive are the calls of the source.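 How the source made its calls: active means compounds giving half or more protection of infected cells from virus-caused growth loss, again on retest; inactive means the rest.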
Test system: CEM cells HIV-1 protection, formazan growth assay
Assay: NCI AIDS Antiviral Assay
Settings: for IC50: measured here: growth of uninfected CEM cells
Summary of the method: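 Five concentrations of each compound were applied to infected and uninfected human CEM cells. Protection from HIV-1 was judged from growth measured with a soluble formazan assay.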

SMILES	EC50 [µM]	IC50 [µM]	outcome
O=C1NC2c3ccccc3CCC12 (configuration not stated)	> 1450	> 1450	
O=c1n(CC2CO2)c2ccccc2n1CC1CS1 (configuration not stated)	> 692	12.9	
CC(C)(C)C(=O)/C=C/c1ccc(-c2ccccc2)cc1	> 19.5	> 19.5	
O=C1CCC(c2ccc(Cl)cc2)=NN1c1nsc2ccccc12	> 39.8	> 39.8	
COc1cccc2c1CCc1cc3c(N)nc(N)nc3nc1-2	> 200	5.25	
C=C1CN(S(=O)(=O)c2ccc(C)cc2)CCCN(Cc2cccs2)CCCN(S(=O)(=O)c2ccc(C)cc2)C1	> 200	70.8	
CCOc1ccc(NC(=S)/N=C/c2c(O)cc(C)oc2=O)cc1			inactive
CCc1ccccc1NC(=O)C1=C(C)NC(C)=C(C(=O)Nc2ccccc2CC)C1c1ccc2c(c1)OCO2	> 13.8	> 13.8	
CCOc1ccc2c(ccc(/C=C\c3cc(C)c4cccnc4c3O)[n+]2C)c1	> 52.5	0.955	
CN(C)Cc1c(O)ccc2ccccc12	> 468	245	
CCOP(=S)(N/N=C1/C2(C)CCC(C2)C1(C)C)OCC (configuration not stated)	> 200	20	
CN(C)c1ccc(C(C2=C(O)c3ccccc3C(=O)C2=O)C2=C(O)c3ccccc3C(=O)C2=O)cc1	> 200	30.9	
Fc1ccccc1CN1COc2c(cc(Cl)c3cccnc23)C1	> 200	3.09	
Cc1ccccc1-n1c(=S)[nH]c2c(sc(=O)n2-c2ccccc2C)c1=O	> 3.8	> 3.8	
CC(C)(C)c1ccc(-n2c3nc(=O)n(-c4ccccc4CO)c(=O)c-3cc3ccccc32)cc1	> 200	23.4	
CN(C)CCN1C(=O)C2C3CCC(C)(O3)C2C1=O (configuration not stated)	> 200	> 200	
OC1COCOC1C(O)C1OCOCC1O (configuration not stated)	> 200	> 200	
C=CC[C@]12C=C(OC)[C@@H](O)[C@](OC)(C(c3cc(OC)c4c(c3)OCO4)[C@H]1C)[C@H]2OC(C)=O (some centres not stated)	> 200	129	
CC1CC(c2ccccc2)Nc2nc3ccccc3n21 (configuration not stated)	> 151	> 151	
NC(CSCc1ccccc1)C(=O)O (configuration not stated)	> 224	> 224	
Cc1ccc(S(=O)(=O)n2c3c(c4ccccc42)CCN2CCC(Br)C[C@@H]32)cc1 (some centres not stated)	> 200	20.9	
O=C(Cc1nc2ccc(C(=O)c3ccccc3)cc2[nH]c1=O)C(=O)Nc1nc2ccccc2[nH]1			inactive
CCOC(=O)c1c(-c2ccc(OC)cc2)c(C#N)c(=S)n(C2OC(COC(C)=O)C(OC(C)=O)C(OC(C)=O)C2OC(C)=O)c1-c1ccccc1 (configuration not stated)	> 200	25.7	

SMILES	EC50 [µM]	IC50 [µM]	outcome
CC1=C(C)CC2(CC1)C(=O)NC(=O)NC2=O	> 832	> 832	
CCCCN(O)[C@@H]1CC(n2cc(C)c(=O)[nH]c2=O)OC1CO[Si](C)(C)C(C)(C)C (some centres not stated)	> 200	83.2	
Cc1ccc(/C=C/C(=O)c2sc(C(N)=S)nc2C)cc1	> 85.1	> 85.1	
N#CC1=C(O)NC(O)=C(C#N)C1c1ccc(C2C(C#N)=C(O)NC(O)=C2C#N)cc1	> 631	35.5	
C=C=C(CC1CCCCC1=O)S(=O)(=O)c1ccccc1 (configuration not stated)	> 200	6.46	
CCOC(=O)c1cc(Br)c(-c2onc(C)c2Br)[nH]1	> 200	> 200	
COC(=O)C(=O)C(C(=O)C(=O)Nc1ccccc1C(N)=O)c1nc2ccc(Cl)cc2[nH]c1=O (configuration not stated)	> 75.9	> 75.9	
COc1ccccc1NC(=O)/C(=C\n1c(=S)[nH]c2ccc([N+](=O)[O-])cc21)C(C)=O	> 200	112	
CC(C)CS(=O)(=O)/C(=C(\c1ccc(Br)cc1)S(=O)(=O)CC(C)C)c1ccc(Br)cc1	> 1.29	> 1.29	
CCOC(=O)COc1ccc(OC)c2c1C(=O)CCC2			inactive
CCOP(=S)(OCC)Oc1ccc2c(c1)OC(=O)C1(Cl)C2(C)C2(Cl)C(=O)Oc3cc(OP(=S)(OCC)OCC)ccc3C12C (configuration not stated)	> 18.6	> 18.6	
C1CN(SSN2CCOCC2)CCO1	> 200	126	
CCCCCCCCCCCCCC1=NCC(C)(C)N1	> 93.3	20.4	
CC1(C)C=C(/C=N/Nc2ccc(Br)cc2)C(C#N)=C(O)C1(C#N)C#N	> 200	28.8	
Cc1ccc(C2=NOC(=O)[C@@H]3CCCC[C@@H]23)cc1	> 200	97.7	
Nc1ccn(CCO)c(=O)n1	> 1620	> 1620	
CC1=CC=NN2C(=O)[C@H](C)C2C1 (some centres not stated)	> 1510	> 1510	
CN=c1ss/c(=N\C(=S)N(C)C)n1-c1ccccc1			inactive
O=C(Nc1ccc(Cl)cc1)NC(O)C(Cl)(Cl)Cl (configuration not stated)	> 200	148	
CN(C)CCn1c2ccccc2c2nc3cc4ccccc4cc3nc21	> 50.1	0.363	
Cc1ccc(C)c2c1C1CCCCC3(OCCCO3)C21O (configuration not stated)	> 200	> 200	
O=C(O)c1c(Br)c(Br)c(Br)c(Br)c1C1c2ccc(O)cc2Oc2cc(O)ccc21	2.95	174	
CCOC(=O)c1ccc(N2C(=O)/C(=C/c3ccc(N(CCC#N)CCC#N)cc3)N=C2c2cc([N+](=O)[O-])ccc2Cl)cc1	> 12	> 12	

SMILES	EC50 [µM]	IC50 [µM]	outcome
Nc1ccc2ncc(NCc3ccc(F)cc3)nc2c1	> 135	69.2	
O=C1[C@@H]2C(c3cccc([N+](=O)[O-])c3)=NO[C@@H]2C(=O)N1c1ccc(Cc2ccc(N3C(=O)[C@H]4C(c5cccc([N+](=O)[O-])c5)=NO[C@H]4C3=O)cc2)cc1	> 38	> 38	
N#CC(C#N)=Cc1ccc(C=C(C#N)C#N)cc1	> 200	8.51	
COc1ccc([N+](=O)[O-])c2c(NCC(O)CO)ccnc12 (configuration not stated)	> 200	29.5	
CC(=O)c1nc2ccccc2n1CC(=O)c1ccc(Cl)cc1	> 200	1.35	
C1CC[C@H]2SSC3CCCC[C@H]3SSC2C1 (some centres not stated)	> 17.8	> 17.8	
COc1ccc(-n2cccc2)cc1	> 200	> 200	
CC1=C(c2cc(C(=O)Nc3cccc(C(F)(F)F)c3)nc(NC#N)n2)Sc2ccccc2N1			inactive
COC(=O)Cc1cc(OC)c(OC)cc1Br	> 631	513	
Cc1cn(C2CC([Se]c3ccccc3)C(CO)O2)c(=O)[nH]c1=O (configuration not stated)	> 200	95.5	
COc1ccc(/C=C2\CCc3ccccc3C2=O)cc1OC	> 33.9	> 33.9	
CCOC(=O)c1ncn2c1[nH]c(=S)c1ccccc12	> 26.3	> 26.3	
COc1ccc(N2C(=O)c3cc(C)cnc3S2(=O)=O)cc1	141	> 200	
CC1(C)CN=C(Nc2ccc(F)c(Cl)c2)S1	> 200	> 200	
O=C1CCc2c(Cl)sc(Cl)c21	> 331	151	
CC(C)(C)[Si](C)(C)OCC1OC(n2ccc(=O)[nH]c2=O)C(O[Si](C)(C)C(C)(C)C)C1CC#N (configuration not stated)	> 200	11.7	inactive
FC(F)(Sc1ccccc1)c1nc2ccccc2o1	> 77.6	66.1	
O=C(O)C12CCCC(CCC1)C2			inactive
O=C(COC(=O)c1cccc2c(=O)c3ccccc3[nH]c12)Nc1ccc(S(=O)(=O)Nc2ncccn2)cc1			inactive
c1ccc2c(c1)nnn2CNc1ccc(N2CCCCC2)cc1	> 200	51.3	
CCOC(=O)C(NC(=O)c1ccccc1)(Nc1ccc(S(=O)(=O)Nc2cc(C)nc(C)n2)cc1)C(F)(F)F (configuration not stated)	> 200	> 200	
O=c1[nH]nc(Cc2ccc([N+](=O)[O-])cc2)n1CCO	> 200	> 200	
O=S(=O)(O)CC(O)CN(CCO)CCO (configuration not stated)	> 200	> 200	

SMILES	EC50 [µM]	IC50 [µM]	outcome
CCP(=O)(CC)C(Cl)(Cl)C(O)C(C)(C)C (configuration not stated)	> 200	> 200	
CSCCCNC(=O)c1csc([C@@H](CSC)NC(=O)CCNC(=O)[C@@H](NC(=O)OCC(Br)(Br)Br)C(C)O)n1 (some centres not stated)	> 166	> 166	
O=C(Nc1ccccc1C(F)(F)F)OCCN1CCNC1=S	> 200	> 200	
CC1=Cc2cccc(C)c2C(=O)C1=O	> 38.9	6.46	
COc1c(N2CCCCC2)c2c(=O)c3ccccc3oc2c2c3ccccc3n(C)c12	170	195	
COc1c(C)c2c(c(O)c1C/C=C(\C)CCC(=O)O)C(=O)OC2	> 7.76	0.0355	
COc1cccc(C2NC(=S)N3C(c4cccc(OC)c4)NC(=S)N23)c1 (configuration not stated)			inactive
Cc1noc(NS(=O)(=O)c2ccc(N=c3c4ccccc4n(-c4ccccc4)c4ccccc34)cc2)c1C			inactive
CN1OC2CCC1CC(OC(c1ccccc1)c1ccccc1)C2 (configuration not stated)	> 200	> 200	
COC(=O)C(=O)C(C#N)c1cccc(O)c1C(=O)OC (configuration not stated)	> 36.3	> 36.3	
O=C(NC1CCC[C@H]1OC(=O)c1ccccc1)c1ccccc1 (some centres not stated)			inactive
O=c1[nH]nnc2c1cnn2C1CCCO1 (configuration not stated)			inactive
COc1ccc(CC2c3cc(OC)c(OC)c(OC)c3CC[N+]2(C)C)cc1Oc1ccc(CC2c3cc4c(c(OC)c3CCN2C)OCO4)cc1 (configuration not stated)			inactive
OCc1c[te]c(-c2ccccc2)c1			inactive
CC(C)(/C=N/O)/[N+]([O-])=C/c1ccccc1	> 200	> 200	
O=C(N/N=C(/CCN1CCCC1)CC(c1ccccc1)c1c(O)c2ccccc2oc1=O)c1ccncc1 (configuration not stated)	> 34.7		
Cc1cn(COCCCSc2ccccc2)c(=O)[nH]c1=O	21.9	166	
CCOP(=O)(OCC)OC(C#N)c1ccc(-c2ccccc2)cc1 (configuration not stated)	> 89.1	45.7	
Clc1ccc(/C=N/Nc2nnc3c4ccccc4c4ncccc4c3n2)cc1	> 50.1	> 50.1	
COc1cc(N(CCC#N)CCC#N)ccc1/C=C1\SC(=S)NC1=O	> 200	> 200	
CN(CCSSCCN(C)C(N)=S)C(N)=S	> 200	> 200	
